The test system of one assay is breast line MDA468. Put plainly: In vitro cell culture growth assay (MTS), MDA468. The assay is classed as cell-based, human. The note with it: MDA468 cells, three days after drug treatment. Summed up:
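MDA468 or LNCap cells received inhibitors one day after plating and were grown for three days. Viable cell density read by MTS conversion, absorbance 490 nm, expressed as percent of control growth versus vehicle-treated cells on the same plate.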

For the next assay, the system named is prostate line LNCap. As to the kind of experiment: In vitro cell culture growth assay (MTS), LNCap. The assay is classed as cell-based, human. The following applies: LNCap cells, three days after drug treatment.
The next assay addresses PI3K (Homo sapiens, UniProt P42336). As to the kind of experiment: Fluorescence polarization assay for PI3K.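 Further: PI3K kinase reaction on PIP2 with ATP, 30-60 min, product sensed by GST-GRP with red probe in fluorescence polarization (mP), controls without enzyme and at zero time.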 In kind it is biochemical. The note with it: PI3Kα; read-out: PI3Kα IC50. On the technique in general: In fluorescence polarisation assays a small probe gives low polarisation when free and higher when bound to something large.

Each structure is given as a SMILES string.

This note sets out measurements from patent US20080234262A1 (Wyeth, priority 2007, published 2008).

By IC50 is commonly meant the concentration that gives 50% inhibition.

PI3K, sequence (P42336 whole entry): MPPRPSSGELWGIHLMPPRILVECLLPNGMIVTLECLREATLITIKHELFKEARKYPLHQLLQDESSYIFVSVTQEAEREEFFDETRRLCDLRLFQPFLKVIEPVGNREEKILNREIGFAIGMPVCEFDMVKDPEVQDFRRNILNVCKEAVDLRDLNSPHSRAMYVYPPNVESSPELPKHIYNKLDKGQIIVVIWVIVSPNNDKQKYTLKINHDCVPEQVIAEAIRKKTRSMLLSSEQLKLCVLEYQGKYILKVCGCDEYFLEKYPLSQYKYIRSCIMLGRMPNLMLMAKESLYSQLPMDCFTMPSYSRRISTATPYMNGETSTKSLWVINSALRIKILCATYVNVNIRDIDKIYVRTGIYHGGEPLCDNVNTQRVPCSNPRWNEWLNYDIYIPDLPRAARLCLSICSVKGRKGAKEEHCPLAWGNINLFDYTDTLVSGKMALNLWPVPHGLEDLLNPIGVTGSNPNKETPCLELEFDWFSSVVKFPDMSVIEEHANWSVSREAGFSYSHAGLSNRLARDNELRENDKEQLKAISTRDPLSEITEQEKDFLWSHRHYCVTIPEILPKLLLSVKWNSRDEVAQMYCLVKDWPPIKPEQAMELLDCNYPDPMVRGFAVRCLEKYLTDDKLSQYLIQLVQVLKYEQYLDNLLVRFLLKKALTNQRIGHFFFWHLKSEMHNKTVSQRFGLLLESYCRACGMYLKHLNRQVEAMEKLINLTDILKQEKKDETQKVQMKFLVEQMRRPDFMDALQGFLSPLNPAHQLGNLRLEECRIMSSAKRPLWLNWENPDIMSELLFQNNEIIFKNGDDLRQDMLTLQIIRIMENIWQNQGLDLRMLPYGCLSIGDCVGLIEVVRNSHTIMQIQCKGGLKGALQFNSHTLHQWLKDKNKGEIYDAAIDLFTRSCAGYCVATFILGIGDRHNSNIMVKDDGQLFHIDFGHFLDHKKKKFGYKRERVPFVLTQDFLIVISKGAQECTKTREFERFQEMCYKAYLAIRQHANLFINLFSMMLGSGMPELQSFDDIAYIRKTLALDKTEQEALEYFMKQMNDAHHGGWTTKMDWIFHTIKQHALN
PI3K, sequence (P27986 whole entry partner): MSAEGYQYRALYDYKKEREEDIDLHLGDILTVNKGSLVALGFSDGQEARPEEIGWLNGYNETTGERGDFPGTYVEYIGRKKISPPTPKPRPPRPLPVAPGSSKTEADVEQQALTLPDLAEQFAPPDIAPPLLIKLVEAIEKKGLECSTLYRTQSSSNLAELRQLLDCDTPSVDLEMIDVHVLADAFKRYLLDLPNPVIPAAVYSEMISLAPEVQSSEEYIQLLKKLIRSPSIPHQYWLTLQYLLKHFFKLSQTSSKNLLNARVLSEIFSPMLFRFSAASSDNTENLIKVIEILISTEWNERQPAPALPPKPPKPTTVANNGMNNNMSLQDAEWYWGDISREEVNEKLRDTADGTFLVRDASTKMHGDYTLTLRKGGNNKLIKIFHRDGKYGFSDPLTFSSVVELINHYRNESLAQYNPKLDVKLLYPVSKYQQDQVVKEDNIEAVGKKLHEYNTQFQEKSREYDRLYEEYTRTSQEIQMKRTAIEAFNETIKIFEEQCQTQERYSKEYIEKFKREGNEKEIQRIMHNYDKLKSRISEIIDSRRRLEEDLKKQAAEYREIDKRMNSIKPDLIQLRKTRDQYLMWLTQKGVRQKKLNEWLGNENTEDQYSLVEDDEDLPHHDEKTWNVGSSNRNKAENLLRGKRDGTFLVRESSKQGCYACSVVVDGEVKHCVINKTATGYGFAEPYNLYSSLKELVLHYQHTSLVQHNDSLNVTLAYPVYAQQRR

Turning to `COC(=O)N1CCC(n2ncc3c(N4CCOCC4)nc(-c4ccc(NC(=O)OCC(F)(F)F)cc4)nc32)CC1` [Compound 908, methyl 4-[4-morpholin-4-yl-6-(4-{[(2,2,2-trifluoroethoxy)carbonyl]amino}phenyl)-1H-pyrazolo[3,4-d]pyrimidin-1-yl]piperidine-1-carboxylate], the IC50 in the assay on breast line MDA468 (Homo sapiens, 72 h) is 17 µM; in the assay with prostate line LNCap (Homo sapiens, LNCaP, 72 h), 1.3 µM; on PI3K, above 10 µM.
As for `c1cc2cc(-c3nc(N4CCOCC4)c4cnn(C5CCC6(CC5)OCCO6)c4n3)ccc2[nH]1` [Compound 142], the IC50 in the assay on breast line MDA468 (Homo sapiens, 72 h) turned out to be 2.2 µM; in the assay with prostate line LNCap (Homo sapiens, LNCaP, 72 h), 0.32 µM; at PI3K, 1.49 µM.
On to `O=C(Nc1ccc(-c2nc(N3CCOCC3)c3cnn(CC(F)(F)F)c3n2)cc1)Nc1cccnc1` [Compound 792, 1-{4-[4-morpholin-4-yl-1-(2,2,2-trifluoroethyl)-1H-pyrazolo[3,4-d]pyrimidin-6-yl]phenyl}-3-pyridin-3-ylurea], for which the concentration for half-maximal inhibition (IC50) in the assay on breast line MDA468 (Homo sapiens, 72 h) was below 0.027 µM; in the assay with prostate line LNCap (Homo sapiens, LNCaP, 72 h), below 0.027 µM; at PI3K, 0.01 µM.
Take `CC(c1ccccc1)N1CCC(n2ncc3c(N4CCOCC4)nc(-c4ccc5[nH]ccc5c4)nc32)CC1` (stereo not drawn) [Compound 240, 6-(1H-indol-5-yl)-4-morpholin-4-yl-1-[1-(1-phenylethyl)piperidin-4-yl]-1H-pyrazolo[3,4-d]pyrimidine]: the IC50 came out at 3.5 µM with breast line MDA468 (Homo sapiens, 72 h); 3.8 µM in the assay on prostate line LNCap (Homo sapiens, LNCaP, 72 h); 2.67 µM at PI3K.
Take `CNC(=O)Nc1ccc(-c2nc(N3CCOCC3)c3cnn(C4CCN(Cc5cccc(O)c5)CC4)c3n2)cc1` [Compound 642, 1-(4-{1-[1-(3-hydroxybenzyl)piperidin-4-yl]-4-morpholin-4-yl-1H-pyrazolo[3,4-d]pyrimidin-6-yl}phenyl)-3-methylurea]: the IC50 was 0.42 µM with breast line MDA468, 0.14 µM with prostate line LNCap and 0.028 µM on PI3K.
Regarding `CNC(=O)Nc1ccc(-c2nc(N3CCOCC3)c3cnn(C4CCN(C(=O)c5ccc(F)cc5)CC4)c3n2)cc1` [Compound 607, 1-(4-{1-[1-(4-fluorobenzoyl)piperidin-4-yl]-4-morpholin-4-yl-1H-pyrazolo[3,4-d]pyrimidin-6-yl}phenyl)-3-methylurea], the IC50 with breast line MDA468 (Homo sapiens, 72 h) turned out to be 0.09 µM; in the assay with prostate line LNCap (Homo sapiens, LNCaP, 72 h), 0.027 µM; on PI3K it was 0.108 µM.
Take `O=C(Nc1ccccc1)Nc1cc(F)c(-c2nc(N3CCOCC3)c3cnn(C4CCN(C(=O)c5cccnc5)CC4)c3n2)cc1F` [Example 469, 1-(2,5-difluoro-4-{4-morpholin-4-yl-1-[1-(pyridin-3-ylcarbonyl)piperidin-4-yl]-1H-pyrazolo[3,4-d]pyrimidin-6-yl}phenyl)-3-phenylurea]: the concentration for half-maximal inhibition (IC50) in the assay with breast line MDA468 (Homo sapiens, 72 h) is 0.6 µM; in the assay with prostate line LNCap (Homo sapiens, LNCaP, 72 h), 0.17 µM; at PI3K, 0.173 µM.
Regarding `CN(C)C1CCC(n2ncc3c(N4CCOCC4)nc(-c4ccc5[nH]ccc5c4)nc32)CC1` (stereo not drawn) [Compound 150], the IC50 in the assay on breast line MDA468 (Homo sapiens, 72 h) amounted to 2.1 µM; with prostate line LNCap (Homo sapiens, LNCaP, 72 h) it was 0.3 µM; on PI3K, 1.95 µM.
`C=CCNC(=O)Nc1ccc(-c2nc(N3CCOCC3)c3cnn(C4CCN(Cc5ccccc5)CC4)c3n2)cc1` [Example 263, 1-allyl-3-{4-[1-(1-benzylpiperidin-4-yl)-4-morpholin-4-yl-1H-pyrazolo[3,4-d]pyrimidin-6-yl]phenyl}urea]: the concentration for half-maximal inhibition (IC50) in the assay on breast line MDA468 (Homo sapiens, 72 h) is 1.8 µM; in the assay with prostate line LNCap (Homo sapiens, LNCaP, 72 h), 0.25 µM; on PI3K, 0.268 µM.
On the same counts, the results for `CNC(=O)Nc1ccc(-c2nc(N3CCOCC3)c3cnn(C4CCN(C(=O)c5ccccc5C)CC4)c3n2)cc1` [Example 356, 1-methyl-3-(4-{1-[1-(2-methylbenzoyl)piperidin-4-yl]-4-morpholin-4-yl-1H-pyrazolo[3,4-d]pyrimidin-6-yl}phenyl)urea] are 0.1 µM, 0.027 µM and 0.093 µM.
Take `COc1ccc(-c2nc(N3CCOCC3)c3cnn(-c4ccccc4)c3n2)cn1` [Example 4]: the IC50 was 38 µM in the assay with breast line MDA468 (Homo sapiens, 72 h); 20 µM with prostate line LNCap (Homo sapiens, LNCaP, 72 h); 5.5 µM at PI3K.
